We go through 103 compounds from ChEMBL document CHEMBL3507680, “University of Dundee, Gates Library screen for HepG2 cell viability”.

The data set is described as follows: Human HepG2 cell viability assay in 384 well format. The class given is toxicity, cell-based. On the set-up: dose 125 nL, time 70.5 hour; cytotoxicity at 70.5 h: concentration not given beside the values. As to conditions: HepG2 cells, read-out: Inhibition.

As to `CC(=O)Nc1nc(COc2nc(C)no2)cs1`, the cytotoxicity at 70.5 h stood at 24.6%.
Consider `CSc1ccc(C(=O)N(c2ccc(F)cn2)C2CCOCC2)o1`, for which the cytotoxicity at 70.5 h is 30.2%.
Regarding `O=S(=O)(CCc1ccccc1)Nc1cc(Cl)ccn1`, the cytotoxicity at 70.5 h came to 0.152%.
Consider `COc1ccc2nc(C3CC3)cc(C(=O)NCc3noc(C)n3)c2c1`, for which the cytotoxicity at 70.5 h was -1.37%.
In the case of `COc1ccc2nc(C3CC3)cc(C(=O)NCc3ncnn3C)c2c1`, the cytotoxicity at 70.5 h turned out to be 0.319%.
To `Cc1cncc(C(=O)N(c2ccc(F)cn2)C2CCOCC2)c1` belongs 5.37%; to `CC(NC(=O)N1CCC2(C1)OCCO2)c1cccc(Cl)c1` (stereo not drawn), -4.94%.
Take `O=S1(=O)CCCN(Cc2ccccc2OCC(F)(F)F)CC1`: the cytotoxicity at 70.5 h is -8.02%.
The same measure for `Cc1ccc(O)c(C(=O)NCCS(=O)(=O)Cc2ccccc2)c1`: -5.32%; for `Cc1ccc(C(=O)NCCS(=O)(=O)Cc2ccccc2)c(C)c1`: 1.96%; for `Cc1cccc(C(=O)NCCS(=O)(=O)Cc2ccccc2)c1`: -8.95%.
To `CCCn1c(NC(=O)CNC(=O)OCC)nc2ccccc21` belongs -8.2%; to `COc1ccccc1C1(CNc2cn[nH]c(=O)c2Cl)CCOCC1`, -13.8%.
To `O=C(COC1CCCCC1)Nc1ccn(Cc2cccnc2)n1` belongs -7.64%; to `Cc1nc(C)n(CC2CCCN2c2ccnc(-c3ccccc3)n2)n1` (stereo not drawn), -6.3%.
For the compound `CCc1nc2n(n1)CC(Nc1nc(C)cc(N(C)C)n1)CC2` (stereo not drawn), the cytotoxicity at 70.5 h is -6.31%.
For `NC(=O)c1ccc(=O)n(Cc2cc(Br)ccc2Cl)n1`, the cytotoxicity at 70.5 h is -5.48%.
`COc1ccc(Br)cc1Cn1nc(C(N)=O)ccc1=O`: the cytotoxicity at 70.5 h was -6.15%.
On to `CCn1nnnc1-c1cccc(NC(=O)CCn2cc(C)cn2)c1`, for which the cytotoxicity at 70.5 h is -7.36%.
For `CCn1nc2c(cc1=O)CN(CC1CCCCO1)CC2` (stereo not drawn), the cytotoxicity at 70.5 h came out at 11.3%.
Turning to `CN(CCN(C)S(=O)(=O)CC1CCOCC1)c1ccccc1`, the cytotoxicity at 70.5 h is -3.42%.
As for `O=c1[nH]c(=O)n(CC(O)c2ccc(F)cc2F)cc1Cl` (stereo not drawn), the cytotoxicity at 70.5 h was 0.374%.
To `CC1CS(=O)(=O)CCN1Cc1ccccc1N(C)C` (stereo not drawn) belongs -0.403%; to `COc1ccc(Cn2nc(C(N)=O)ccc2=O)c(Cl)c1`, -3.77%; to `CCOc1cccc(NCc2cnc(N3CCN(C)CC3)nc2)n1`, 3.56%.
On to `O=C(NC1CCCCC1)c1c(F)cccc1F`, for which the cytotoxicity at 70.5 h was determined as 4.08%.
Turning to `CCCn1nc2c(cc1=O)CN(CC1CCCCO1)CC2` (stereo not drawn), the cytotoxicity at 70.5 h was -1.08%.
For `CC(=O)N1CCN(c2ccccc2CNc2ccc3[nH]ncc3c2)CC1`, the cytotoxicity at 70.5 h came to 0.892%.
For the compound `CCn1nnnc1-c1cccc(NC(=O)CCOC(C)C)c1`, the cytotoxicity at 70.5 h was -7.16%.
Regarding `CC(=O)N1CCN(c2ccccc2CNc2cncc(C)c2)CC1`, the cytotoxicity at 70.5 h is 4.13%.
As to `CCn1cc(S(=O)(=O)Nc2ccc3[nH]c(C4CCC4)nc3c2)cn1`, the cytotoxicity at 70.5 h was determined as 24.1%.
On to `CC(C)NC(=O)N1CCCCCC1C1CCN(c2ncccn2)CC1` (stereo not drawn), for which the cytotoxicity at 70.5 h is 19.7%.
With `CCC(=O)Nc1ccc(F)cc1OC`, the cytotoxicity at 70.5 h was found to be 14.6%.
For the compound `Cc1cc(C(=O)N(C)C2CCS(=O)(=O)C2)c2ccc(F)cc2n1` (stereo not drawn), the cytotoxicity at 70.5 h was found to be 10.8%.
With `CN(Cc1cc(Cl)c2c(c1)OCO2)Cc1cscn1`, the cytotoxicity at 70.5 h was 3.03%.
The same measure for `CCCN1CCC(N(C)C(=O)c2cc(C)nc3cc(F)ccc23)CC1`: -11.9%.
The same measure for `Cc1cc(N(C)C)nc(N2CCn3c(nnc3C3CC3)C2)n1`: 5.46%; for `CS(=O)(=O)CCCN1CCSCC1c1ccc(Cl)cc1` (stereo not drawn): -9.37%.
The same measure for `Cc1noc(C)c1NC(=O)N1CCC(NC(=O)OC(C)(C)C)CC1`: -5.75%; for `Cc1ccc(C(=O)NS(=O)(=O)c2ccc3c(c2)OCCCO3)o1`: 11.7%; for `CCOc1ncccc1C(=O)NC1CC(=O)N(CC(F)(F)F)C1` (stereo not drawn): -6.92%.
Regarding `Cc1nc(CN2CCCC2C(=O)OCc2ccccc2)oc1C` (stereo not drawn), the cytotoxicity at 70.5 h is -10.3%.
Turning to `CC(C)Oc1ccccc1C(=O)NC1CC(=O)N(CC(F)(F)F)C1` (stereo not drawn), the cytotoxicity at 70.5 h was -22.6%.
For `COC(=O)CCN(CC1CCCO1)C(=O)Cc1ccc(OC)c(OC)c1` (stereo not drawn), the cytotoxicity at 70.5 h was -5.89%.
In the case of `O=C(NCC1(O)CCSCC1)c1nccc2ccccc12`, the cytotoxicity at 70.5 h was determined as 13.5%.
Take `Cc1cc(NC(=O)CNc2cccc(OC(F)F)c2C)n(C)n1`: the cytotoxicity at 70.5 h is -6.65%.
`CNC(=O)c1c(C)cccc1NCC(=O)Nc1cc(C)nn1C`: the cytotoxicity at 70.5 h worked out at 8.71%.
On to `C/C=C(/C)C(=O)NS(=O)(=O)c1ccc(Cl)cn1`, for which the cytotoxicity at 70.5 h is -0.512%.
For `Cc1oc(CNC(=O)Cc2ccccc2Cl)cc1C(=O)O`, the cytotoxicity at 70.5 h was -7.56%.
For the compound `C/C=C(/C)C(=O)NS(=O)(=O)c1ccc(C(F)(F)F)cn1`, the cytotoxicity at 70.5 h is -18.7%.
As to `CSc1cc(CNC(=O)CCOc2ccccc2C)ccn1`, the cytotoxicity at 70.5 h is -7.07%.
Consider `CSC1(CNC(=O)c2ccn(-c3ccccc3F)n2)CCOCC1`, for which the cytotoxicity at 70.5 h was -8.53%.
For the compound `Cc1cc(C(C)(O)CNC(=O)CCn2ccnc2C(C)C)c(C)o1` (stereo not drawn), the cytotoxicity at 70.5 h stood at 9.42%.
The same measure for `OC1(CN2CCCC(Cn3cncn3)C2)CCCCC1` (stereo not drawn): 6.45%; for `CCN1CC(COC(=O)c2ccccc2Cl)CC1=O` (stereo not drawn): 7.47%; for `O=C(c1ccc(NCc2cccc(F)c2)cc1)N1CCCC1`: 1.69%.
On to `c1ncn(CC2CCCN(CC3CCCCC3)C2)n1` (stereo not drawn), for which the cytotoxicity at 70.5 h was -7.32%.
The same measure for `CC1(C)CN(C(CNS(C)(=O)=O)c2ccc(Cl)cc2)CCO1` (stereo not drawn): -5.58%.
`COCC(=O)NC(C)c1sc(-c2ccccc2F)nc1C` (stereo not drawn): the cytotoxicity at 70.5 h is -2.79%.
On to `CC(C)n1cnnc1CNC(=O)c1cnn(-c2ccccc2)c1`, for which the cytotoxicity at 70.5 h was 10%.
For the compound `CCOc1ccc(Cl)c(C(=O)N2CCCC(c3ccn[nH]3)C2)n1` (stereo not drawn), the cytotoxicity at 70.5 h is -2.59%.
Take `O=C(c1cccc(NCc2cccc(F)c2)c1)N1CCC(O)CC1`: the cytotoxicity at 70.5 h is 10.8%.
To `O=C(c1ccc(NCc2cccc(F)c2)cc1)N1CCC(CO)CC1` belongs 2.87%; to `Cc1nc(C)c(C(=O)Nc2ccc(-c3nnc(N(C)C)o3)cc2)o1`, -4.93%.
To `CC(CS(C)(=O)=O)NC(=O)N1CC2(CCCC2)c2ccccc21` (stereo not drawn) belongs -2.3%; to `NC(=O)c1ccc(NC(=O)c2ccncc2F)cn1`, 10.3%; to `CC(C)NC(=O)N1CCC[C@H]1C(=O)NCCCc1cnn(C)c1`, -4.04%.
As for `O=C(NCC1(c2cccs2)CCCCC1)N1CCOC(CO)C1` (stereo not drawn), the cytotoxicity at 70.5 h is -1.73%.
Regarding `Cc1ccc(C(C)(O)CNC(=O)CCn2ccnc2C(C)C)o1` (stereo not drawn), the cytotoxicity at 70.5 h is -2.97%.
In the case of `CC(=O)N1CCCN(C(=O)NCC2(c3cccs3)CCCC2)CC1`, the cytotoxicity at 70.5 h is -4.55%.
As to `CCN(CCCc1ccccc1C)S(C)(=O)=O`, the cytotoxicity at 70.5 h is -3.45%.
The same measure for `O=C(Nc1ccccc1)C1CCCN(C(=O)Cn2cncn2)C1` (stereo not drawn): -0.859%; for `Cc1csc(N(C)C(=O)C2CC(=O)N(CCc3ccccc3)C2)n1` (stereo not drawn): 4.67%.
The same measure for `Cc1csc(N(C)C(=O)C2CC(=O)N(c3ccccc3F)C2)n1` (stereo not drawn): -0.144%.
To `COCCn1cc(NC(=O)NC(C)c2ccc(Cl)s2)cn1` (stereo not drawn) belongs -3.34%.
Regarding `COc1ncccc1NC(=O)N1CCOCC1C` (stereo not drawn), the cytotoxicity at 70.5 h worked out at 4.15%.
Turning to `CCOc1cccc2c1OCC(C(=O)NC(C)Cn1cccn1)=C2` (stereo not drawn), the cytotoxicity at 70.5 h was determined as 16.6%.
For `COc1ccc(Oc2ncccc2NC(=O)N2CCOCC2C)cc1` (stereo not drawn), the cytotoxicity at 70.5 h was -1.92%.
For `COc1ccc(Oc2ncccc2NC(=O)N2CC[C@H](O)C2)cc1`, the cytotoxicity at 70.5 h was -1.8%.
Regarding `Cc1cc(C(=O)N2CCCC2CN2CCCC2)no1` (stereo not drawn), the cytotoxicity at 70.5 h came to 12.9%.
`COC(=O)C(CNC(=O)Nc1cn[nH]c1)Cc1cccc(C)c1` (stereo not drawn): the cytotoxicity at 70.5 h was -0.383%.
Regarding `Cc1ccc(CN(CC(=O)NC2CCOCC2)c2ccc(F)cc2)o1`, the cytotoxicity at 70.5 h was 1.79%.
Take `CC(Nc1nc2c(cnn2C)c(=O)[nH]1)c1ccccn1` (stereo not drawn): the cytotoxicity at 70.5 h was determined as 13%.
In the case of `COc1ccc(NC(=O)N2CCC(c3noc(C)n3)CC2)cc1C`, the cytotoxicity at 70.5 h came to 1.97%.
With `Cc1cc(NC(N)=O)ccc1OCC(F)(F)F`, the cytotoxicity at 70.5 h was -2.1%.
The same measure for `CC(Cn1cncn1)NC(=O)NCC(C)(C)c1ccc(F)cc1` (stereo not drawn): 1.47%; for `CCn1nc2c(cc1=O)CN(Cc1nc(-c3ccoc3)no1)CC2`: 19.1%.
On to `CN(C(=O)c1ccncc1)c1ccccc1S(C)(=O)=O`, for which the cytotoxicity at 70.5 h is -2.3%.
On to `COc1ccc(NC(=O)N2CCC(c3nnc[nH]3)CC2)cc1C`, for which the cytotoxicity at 70.5 h was -3.69%.
To `CCOc1ncccc1NC(=O)N1CCOCC1C` (stereo not drawn) belongs -5.63%.
To `Cc1cc(CN(C)C(=O)NC(C)Cc2ccco2)no1` (stereo not drawn) belongs -3.4%.
With `CN(C)CCN(Cc1cccnc1)C(=O)c1ccn(-c2ccccc2)n1`, the cytotoxicity at 70.5 h was -3.54%.
To `CCc1noc(C(C)N(C)Cc2cc(Br)ccc2OC)n1` (stereo not drawn) belongs -15.2%; to `CCCC(NC(=O)c1ccc(C)cc1C)c1nnn[nH]1` (stereo not drawn), 0.32%.
In the case of `CCCC(NC(=O)c1cc(C)c(F)cc1F)c1nnn[nH]1` (stereo not drawn), the cytotoxicity at 70.5 h was -2.37%.
On to `CCC1CCCCN1CCNC(=O)N1CCN(Cc2ccon2)CC1` (stereo not drawn), for which the cytotoxicity at 70.5 h was -2.53%.
For `CN1CCC(CCNC(=O)N2CCN(Cc3ccon3)CC2)CC1`, the cytotoxicity at 70.5 h stood at 14.9%.
`COc1ccc(CNC(C)c2ccc(Cl)cc2)c(OC)c1OC` (stereo not drawn): the cytotoxicity at 70.5 h came out at 13.3%.
The same measure for `CCCC(NC(=O)c1cc(C)ccc1O)c1nnn[nH]1` (stereo not drawn): -10.4%.
For `CCC(C)Sc1nncn1-c1ccc(OC)nc1` (stereo not drawn), the cytotoxicity at 70.5 h was determined as 5.95%.
Regarding `COc1ccc(CNC(C)c2ccc(Cl)c(Cl)c2)c(OC)c1OC` (stereo not drawn), the cytotoxicity at 70.5 h is 5.68%.
In the case of `CCOCCCNC(=O)Cc1cccc(F)c1`, the cytotoxicity at 70.5 h came out at 1.71%.
As to `O=C(NCCNS(=O)(=O)c1ccc2c(c1)CCC2)c1ccccc1`, the cytotoxicity at 70.5 h was -1.96%.
